Test system: NOMO1
Test: cell viability relative to DMSO control; higher = less cytotoxic
Details: 48 h
How it was run: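 Cells were incubated for 48 h at 37°C before CellTiter-Glo One luminescence was read. The cells were NOMO1 or SEM (500 cells/well) or P12-Ichikawa (1000 cells/well) leukemia cells, adapted for at least four passages in each medium and seeded in 1536-well plates (5 μl). Dosing used library compounds in DMSO applied by pin over 11 threefold points, 47 μM to 0.79 nM. Viability is the per-plate percentage of DMSO wells, with cell-free wells as background.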

[1] = HPLM + 10% dialyzed FBS, 0.000781 µM
[2] = HPLM + 10% dialyzed FBS, 0.00234 µM
[3] = HPLM + 10% dialyzed FBS, 0.00702 µM
[4] = HPLM + 10% dialyzed FBS, 0.0211 µM
[5] = HPLM + 10% dialyzed FBS, 0.0632 µM
[6] = HPLM + 10% dialyzed FBS, 0.19 µM
[7] = HPLM + 10% dialyzed FBS, 0.569 µM
[8] = HPLM + 10% dialyzed FBS, 1.71 µM
[9] = HPLM + 10% dialyzed FBS, 5.12 µM
[10] = HPLM + 10% dialyzed FBS, 15.4 µM
[11] = HPLM + 10% dialyzed FBS, 46.1 µM
[12] = RPMI 5 mM glucose + 10% FBS, 0.000781 µM
[13] = RPMI 5 mM glucose + 10% FBS, 0.00234 µM
[14] = RPMI 5 mM glucose + 10% FBS, 0.00702 µM
[15] = RPMI 5 mM glucose + 10% FBS, 0.0211 µM
[16] = RPMI 5 mM glucose + 10% FBS, 0.0632 µM
[17] = RPMI 5 mM glucose + 10% FBS, 0.19 µM
[18] = RPMI 5 mM glucose + 10% FBS, 0.569 µM
[19] = RPMI 5 mM glucose + 10% FBS, 1.71 µM
[20] = RPMI 5 mM glucose + 10% FBS, 5.12 µM
[21] = RPMI 5 mM glucose + 10% FBS, 15.4 µM
[22] = RPMI 5 mM glucose + 10% FBS, 46.1 µM
[23] = RPMI 5 mM glucose + 10% dialyzed FBS, 0.000781 µM
[24] = RPMI 5 mM glucose + 10% dialyzed FBS, 0.00234 µM
[25] = RPMI 5 mM glucose + 10% dialyzed FBS, 0.00702 µM
[26] = RPMI 5 mM glucose + 10% dialyzed FBS, 0.0211 µM
[27] = RPMI 5 mM glucose + 10% dialyzed FBS, 0.0632 µM
[28] = RPMI 5 mM glucose + 10% dialyzed FBS, 0.19 µM
[29] = RPMI 5 mM glucose + 10% dialyzed FBS, 0.569 µM
[30] = RPMI 5 mM glucose + 10% dialyzed FBS, 1.71 µM
[31] = RPMI 5 mM glucose + 10% dialyzed FBS, 5.12 µM
[32] = RPMI 5 mM glucose + 10% dialyzed FBS, 15.4 µM
[33] = RPMI 5 mM glucose + 10% dialyzed FBS, 46.1 µM

| SMILES | cell viability [1] [%] | cell viability [2] [%] | cell viability [3] [%] | cell viability [4] [%] | cell viability [5] [%] | cell viability [6] [%] | cell viability [7] [%] | cell viability [8] [%] | cell viability [9] [%] | cell viability [10] [%] | cell viability [11] [%] | cell viability [12] [%] | cell viability [13] [%] | cell viability [14] [%] | cell viability [15] [%] | cell viability [16] [%] | cell viability [17] [%] | cell viability [18] [%] | cell viability [19] [%] | cell viability [20] [%] | cell viability [21] [%] | cell viability [22] [%] | cell viability [23] [%] | cell viability [24] [%] | cell viability [25] [%] | cell viability [26] [%] | cell viability [27] [%] | cell viability [28] [%] | cell viability [29] [%] | cell viability [30] [%] | cell viability [31] [%] | cell viability [32] [%] | cell viability [33] [%] |
| --- | --- | --- | --- | --- | --- | --- | --- | --- | --- | --- | --- | --- | --- | --- | --- | --- | --- | --- | --- | --- | --- | --- | --- | --- | --- | --- | --- | --- | --- | --- | --- | --- | --- |
| Oc1ccc2ccccc2c1SSc1c(O)ccc2ccccc12 | 94.5 | 101 | 101 | 126 | 124 | 135 | 111 | 125 | 114 | 92.8 | 103 | 98.9 | 94.4 | 111 | 119 | 108 | 109 | 110 | 107 | 96.9 | 104 | 96.4 | 85.3 | 93.9 | 117 | 116 | 105 | 105 | 109 | 105 | 96.3 | 100 | 78.9 |
| C[N]1C=C(C=N1)C2=CC=C3N=CC\4=C(N(C(=O)\C=C4)C5=CC6=C(CCN6C(=O)C=C)C=C5)C3=C2 |  |  |  |  |  |  |  |  |  |  |  | 100 | 104 | 108 | 95.2 | 102 | 109 | 95.7 | 88.8 | 69.3 | 13.5 | 9.25 | 105 | 108 | 109 | 119 | 97.2 | 107 | 96 | 90.6 | 47.4 | 6.23 | 5.9 |
| COc1cc2c(Nc3ccc(Cl)c(Cl)c3F)ncnc2cc1OC[C@@H]1C[C@@H]2CN(C)C[C@@H]2C1 | 97.3 | 99 | 106 | 104 | 128 | 127 | 93.3 | 101 | 96.6 | 45.6 | 6.66 | 93.7 | 104 | 115 | 106 | 103 | 115 | 110 | 109 | 111 | 97.8 | 6.22 | 93.4 | 116 | 111 | 112 | 112 | 104 | 107 | 105 | 111 | 92.1 | 4.94 |
| CCCCCCCCCCCC/1=C(O)/C(=O)/C=C(O)\C1=O | 112 | 116 | 142 | 127 | 154 | 151 | 51.1 | 39.4 | 40.9 | 35.5 | 28.6 |  |  |  |  |  |  |  |  |  |  |  |  |  |  |  |  |  |  |  |  |  |  |
| CCN(CC)CCCC(C)Nc1nc(C)cc(Nc2ccc3nc(C)cc(N)c3c2)n1 (configuration not stated) | 79.6 | 105 | 124 | 125 | 108 | 125 | 119 | 129 | 102 | 111 | 114 | 96.3 | 111 | 110 | 113 | 123 | 116 | 124 | 110 | 120 | 108 | 111 | 106 | 108 | 114 | 111 | 122 | 115 | 120 | 107 | 115 | 94.6 | 103 |
| CC(C)n1cnc2c(NCCc3ccc(O)cc3)nc(-c3csc4ccccc34)nc21 | 108 | 98 | 124 | 99.4 | 121 | 116 | 144 | 139 | 51.1 | 33.8 | 13.4 | 115 | 114 | 104 | 113 | 127 | 114 | 119 | 113 | 119 | 57.1 | 24.9 | 114 | 116 | 115 | 121 | 124 | 116 | 125 | 140 | 130 | 57.1 | 29.1 |
| CC(C)(C)C1=CC(=C(NC(=O)C/2=C/NC3=C(C=CC=C3)C2=O)C=C1O)C(C)(C)C |  |  |  |  |  |  |  |  |  |  |  | 120 | 108 | 118 | 128 | 136 | 124 | 121 | 116 | 114 | 111 | 103 |  |  |  |  |  |  |  |  |  |  |  |
| O=C(NCc1ccccc1)c1csc(Nc2ccncn2)n1 | 86.8 | 95.2 | 101 | 94 | 121 | 97.3 | 97.6 | 51.2 | 26.7 | 4.88 | 2.11 | 90.8 | 82.1 | 98.6 | 83 | 94.8 | 98.2 | 95.4 | 56.6 | 33.4 | 4.95 | 3.15 | 92 | 95 | 93.2 | 85.2 | 93.7 | 77.2 | 103 | 67.7 | 33.9 | 4.75 | 3.19 |
| CCCCc1nc2cc(/C=C/C(=O)NO)ccc2n1CCN(CC)CC | 109 | 112 | 94.2 | 106 | 86.9 | 99.7 | 85.1 | 84.8 | 39.3 | 4.23 | 6.15 | 80.5 | 83.2 | 83.2 | 87.1 | 94.2 | 89.3 | 86.8 | 85.9 | 28.6 | 4.31 | 4.51 | 74.9 | 98.4 | 86.4 | 91.5 | 94.3 | 97.2 | 86.2 | 79.3 | 57.9 | 5.08 | 4.97 |

Source: the supplement of paper PMC11451515
